Assay results taken from PubChem BioAssay (NCI).
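Five concentrations, 48 hours, 96-well plates. GI50 is the concentration that inhibits growth by half. TGI denotes the concentration required for complete inhibition of growth.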 Where a SMILES comes first, the peptide text is derived from it.

What was measured:
Assay in all cases: NCI anticancer screen, dose series, 48 h
[1] = tested on: COLO 205 colon
[2] = tested on: U251 CNS
[3] = tested on: SNB-19 CNS
[4] = tested on: 786-0 renal
[5] = tested on: MDA-MB-435
[6] = tested on: SK-MEL-5 melanoma
[7] = tested on: RXF 393 renal
[8] = tested on: SN12C renal
[9] = tested on: MDA-MB-231 breast

Compound	TGI [1]	TGI [2]	TGI [3]	TGI [4]	TGI [5]	TGI [6]	TGI [7]	TGI [8]	TGI [9]	GI50 [1]	GI50 [2]	GI50 [3]	GI50 [6]	GI50 [7]	GI50 [8]
Cc1ccc(C2(N3CCOCC3)OC(C)(C)c3cccc4cccc2c34)cc1 (stereo unspecified)	31 µM	30.7 µM	32.6 µM	32.4 µM	32.6 µM	35.1 µM	31.5 µM	32.5 µM	–	–	–	–	–	–	–
COc1ccc(C[C@H]2COC(=O)[C@@H]2Cc2ccccc2)cc1OC	–	> 100 µM	> 100 µM	> 100 µM	–	> 100 µM	–	> 100 µM	> 100 µM	–	–	–	–	–	–
Cc1sc2nc3n(sc4nc5sc(C)c(C)c5c(=O)n43)c(=O)c2c1C	> 100 µM	> 100 µM	> 100 µM	> 100 µM	> 100 µM	> 100 µM	–	> 100 µM	> 100 µM	–	–	–	–	–	–
C/C(=N\NC(=O)c1ccncc1)c1cccc(C(F)(F)F)c1	> 10 µM	> 10 µM	–	–	–	> 10 µM	–	> 10 µM	> 10 µM	–	–	–	–	–	–
c1ccc2c(c1)ccc1nc(-c3ccc4c(c3)OCO4)c3c(c12)CCC3	> 100 µM	> 100 µM	> 100 µM	> 100 µM	> 100 µM	–	–	> 100 µM	> 100 µM	–	–	–	–	–	–
O=C(O)c1cc(Nc2c(O)c3c(c(O)c2Cl)C(=O)C=CC3=O)ccc1O	> 10 µM	> 10 µM	> 10 µM	> 10 µM	> 10 µM	> 10 µM	–	> 10 µM	> 10 µM	–	–	–	–	–	–
Cc1ccc(C(=O)NN=C(/N=N/c2cccc(C)c2)c2ccc(N(C)C)cc2)cc1	> 100 µM	> 100 µM	> 100 µM	> 100 µM	> 100 µM	> 100 µM	–	> 100 µM	> 100 µM	–	–	–	–	–	–
CCC(C)C(NC(=O)C1CCCN1)C(=O)NC(C(=O)NCC(=O)NC(CC(N)=O)C(=O)NC(CC(C)C)C(=O)NC(CC(C)C)C(=O)NC(CCCCN)C(N)=O)C(C)C (stereo unspecified) (H-PIVGNLLK-NH2; configuration not given here)	> 75 µM	> 75 µM	> 75 µM	> 75 µM	> 75 µM	> 75 µM	–	> 75 µM	> 75 µM	–	–	–	–	–	–
COc1ccc(C2C3=CONC3CC3CCCCC32)cc1 (stereo unspecified)	–	> 100 µM	> 100 µM	> 100 µM	> 100 µM	> 100 µM	–	–	–	–	–	–	–	–	–
Cc1c(Cl)c(=O)oc2cc(OCC(O)COC(C)C)ccc12 (stereo unspecified)	47.8 µM	> 100 µM	> 100 µM	> 100 µM	> 100 µM	38.3 µM	–	–	–	–	–	–	–	–	–
CCCCNC(=S)Nc1nc(C(=O)NNC(=S)NCc2ccccc2)cs1	> 100 µM	> 100 µM	–	> 100 µM	> 100 µM	70.2 µM	–	> 100 µM	> 100 µM	–	–	–	–	–	–
C=C1CC(Cn2cc(Br)c(=O)[nH]c2=O)(c2ccc(Br)cc2)OC1=O (stereo unspecified)	3.18 µM	28.8 µM	30.4 µM	3.27 µM	10.4 µM	7.5 µM	–	20.8 µM	17.4 µM	–	–	–	–	–	–
N#C[C@H]1C(=O)C(c2nc3ccccc3[nH]2)S[C@H]1c1ccccc1 (stereo partly specified)	> 100 µM	57.2 µM	> 100 µM	54.2 µM	87.8 µM	> 100 µM	67.8 µM	91.3 µM	–	–	–	–	–	–	–
C=C1C(=O)O[C@H]2[C@H]1CC/C(COC(=O)/C=C/C(=O)OC/C1=C/CC[C@@]3(C)O[C@H]3[C@H]3OC(=O)C(=C)[C@@H]3CC1)=C\CC[C@@]1(C)O[C@@H]21	1.24 µM	10.8 µM	> 100 µM	–	–	> 100 µM	0.713 µM	4.04 µM	–	0.351 µM	2.82 µM	5.49 µM	4.34 µM	0.297 µM	1.49 µM
O=C1CCc2cc3c(cc21)C(C(=O)O)CC3 (stereo unspecified)	> 100 µM	> 100 µM	> 100 µM	> 100 µM	–	> 100 µM	> 100 µM	> 100 µM	> 100 µM	–	–	–	–	–	–
CCC(=O)Nc1ccc(N2C(=O)/C(=C/c3ccc(O)c(OC)c3)N=C2c2ccccc2)cc1	–	–	> 100 µM	95.6 µM	> 100 µM	32.8 µM	48.4 µM	> 100 µM	–	–	–	–	–	–	–
COC(=O)c1c(C)cccc1C1CN=NC12Cc1cccc(C)c1C2=O (stereo unspecified)	> 100 µM	> 100 µM	> 100 µM	> 100 µM	> 100 µM	40.1 µM	> 100 µM	> 100 µM	–	–	–	–	–	–	–
CCCCCCCCCCC[N+]1(Cc2ccccc2)CC2CCN(Cc3ccccc3)CC2C1 (stereo unspecified)	2.18 µM	1.11 µM	1.49 µM	2.21 µM	–	0.357 µM	1.95 µM	1.5 µM	–	–	–	–	–	–	–
CC(C)(C)C(=O)O[C@H]1C=C[C@@H](O)[C@@H]2[C@H]1[C@@H]1C=C[C@H]2C1	> 100 µM	> 100 µM	> 100 µM	> 100 µM	–	–	–	41 µM	> 100 µM	–	–	–	–	–	–
COC(C/C=C\C=C\CC/C=C/CC(C)/C=C/C(=C\C(=O)O)CC(=O)O)/C(C)=C\C=C(/C)C(=O)O (stereo unspecified)	> 100 µM	> 100 µM	> 100 µM	–	> 100 µM	> 100 µM	–	> 100 µM	> 100 µM	–	–	–	–	–	–
